Patent publication US5447862A, “Pectin lyase genes of aspergillus niger” (Ciba-Geigy Corporation, priority 1987, dated 1995)

System: Aspergillus niger pectin lyase B (PLB), purified from pelB transformant B13, SEQ ID NO: 6
Details: EDTA 3 mM final concentration in the reaction mixture; enzyme reactivated by excess of Ca2+ ions
Method: Both highly esterified pectin (d.e. 94%) as well as pectins with lower degree of esterification like Brown Ribbon apple pectin (d.e. 72.8%; Obipektin AG Bischoffzell) can be used as substrate.
These values are determined according to the procedure of van Houdenhoven (ref. 18) using a Mc Ilvaine buffer of pH 8.0 (μ=0.5).

O=C([O-])CN(CCN(CC(=O)O)CC(=O)O)CC(=O)[O-].[Na+].[Na+] [EDTA, ethylenediaminetetraacetic acid disodium salt]
inhibition of the pectin lyase reaction by EDTA: inhibited
